One assay addresses Wild-type cruzipain (Trypanosoma cruzi, UniProt P25779). The experiment in a line: Trypanosoma cruzi cruzipain peptidase activity assay (Ki). The following applies: read-out: Ki, inhibitors of cruzain and cruzipains. It is filed as biochemical. An outline of the steps: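 Native cruzipain from T. cruzi Dm28 epimastigotes, 2.5 nM, in 100 mM sodium phosphate pH 6.75 with 1 mM EDTA and 10 mM L-cysteine, 25 °C, DMSO <1%. Rates taken from continuous fluorogenic substrate read; Ki by regression assuming reversible pure-competitive inhibition.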

In a further assay the target is T1, CPB2.8ΔCTE (Leishmania mexicana, UniProt P36400).
T1 construct: Wild-type recombinant CPB without the C-terminal extention (i.e. CPB2.8ΔCTE); Dr. Jeremy Mottram (Wellcome Centre for Molecular Parasitology, University of Glasgow)
T1 sequence (P36400 126-343, stated change not applied): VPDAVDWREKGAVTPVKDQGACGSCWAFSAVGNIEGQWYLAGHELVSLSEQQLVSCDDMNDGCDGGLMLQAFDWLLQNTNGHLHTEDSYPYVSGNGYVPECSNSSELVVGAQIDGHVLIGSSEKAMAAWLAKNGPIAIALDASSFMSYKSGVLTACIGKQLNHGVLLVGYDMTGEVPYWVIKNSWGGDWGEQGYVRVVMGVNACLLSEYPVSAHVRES
Nature of the assay: Leishmania mexicana cysteine protease B (CPB) peptidase activity assay (Ki). The following applies: Ki, inhibitors of Leismania mexicana CPB protease. Type of assay: biochemical. An outline of the steps:
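Recombinant CPB2.8ΔCTE (0.25 nM) was assayed in 100 mM sodium acetate pH 5.5 with 1 mM EDTA, 200 mM NaCl and 10 mM DTT at 25 °C, DMSO <1%, enzyme added to start. Rates were taken from continuous fluorescence slopes; apparent Ki was fitted assuming reversible, pure-competitive inhibition.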

The values below come from US20060100431A1, “Biologically active compounds” (Amura Therapeutics Limited, priority 2002, published 2006).

What is called pKi is −log10 of the Ki, conventionally taken in molar units.

pKi: −log10 of the molar value. Bounds are passed on as bounds.

Wild-type cruzipain, sequence (P25779 whole entry): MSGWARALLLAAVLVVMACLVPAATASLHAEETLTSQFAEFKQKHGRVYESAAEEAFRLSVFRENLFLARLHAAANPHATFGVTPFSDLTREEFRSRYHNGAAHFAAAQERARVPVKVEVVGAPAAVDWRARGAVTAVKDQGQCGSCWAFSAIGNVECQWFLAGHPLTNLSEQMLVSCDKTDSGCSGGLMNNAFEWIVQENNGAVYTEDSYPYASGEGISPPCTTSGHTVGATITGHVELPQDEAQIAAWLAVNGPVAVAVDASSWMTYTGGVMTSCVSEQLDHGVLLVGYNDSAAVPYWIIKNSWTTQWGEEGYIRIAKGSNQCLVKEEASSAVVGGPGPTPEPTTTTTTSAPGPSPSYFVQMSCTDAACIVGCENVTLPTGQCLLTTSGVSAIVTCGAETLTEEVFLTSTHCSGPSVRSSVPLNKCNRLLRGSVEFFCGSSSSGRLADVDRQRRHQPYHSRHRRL

For the compound `CC(C)C[C@H](NC(=O)c1ccc(C(C)(C)C)cc1)C(=O)N1CC[C@@H]2[C@H]1C(=O)CN2C(=O)c1cccnc1` [Example 5, (3aR,6aS)-4-tert-Butyl-N-{(1S)-3-methyl-1-[6-oxo-4-(pyridine-3-carbonyl)-hexahydro-pyrrolo[3,2-b]pyrrole-1-carbonyl]-butyl}-benzamide], the negative logarithm of the Ki (pKi) on Wild-type cruzipain and at CPB2.8ΔCTE was more than 5.30 each time.
As for `CC(C)C[C@H](NC(=O)c1ccc(N(C)C)cc1)C(=O)N1CC[C@@H]2[C@H]1C(=O)CN2C(=O)[C@@H](N)[C@H](C)O` [Example 208, (3aR,6aS)-N-{(1S)-1-[4-((2S,3S)-2-Amino-3-hydroxy-butyryl)-6-oxo-hexahydro-pyrrolo[3,2-b]pyrrole-1-carbonyl]-3-methyl-butyl}-4-dimethylamino-benzamide], the pKi on Wild-type cruzipain and on CPB2.8ΔCTE was more than 5.30 in each case.
In the case of `CC(C)C[C@H](NC(=O)c1ccc(N(C)C)cc1)C(=O)N1CC[C@@H]2[C@H]1C(=O)CN2C(=O)N1CCOCC1` [Example 142, (3aR,6aS)-4-Dimethylamino-N-{(1S)-3-methyl-1-[4-(morpholin-4-carbonyl)-6-oxo-hexahydro-pyrrolo[3,2-b]pyrrole-1-carbonyl]-butyl}-benzamide], the pKi on Wild-type cruzipain and on CPB2.8ΔCTE was more than 5.30 each time.
Turning to `CC(C)C[C@H](NC(=O)c1ccc(N(C)C)cc1)C(=O)N1CC[C@@H]2[C@H]1C(=O)CN2C(=O)c1ccccc1Cl` [Example 72, (3aR,6aS)-N-{(1S)-1-[4-(2-Chloro-benzoyl)-6-oxo-hexahydro-pyrrolo[3,2-b]pyrrole-1-carbonyl)-3-methyl-butyl}-4-dimethylamino-benzamide], the pKi at Wild-type cruzipain and at CPB2.8ΔCTE was more than 5.30 each time.
Turning to `CC(=O)Nc1ccsc1C(=O)N1CC(=O)[C@@H]2[C@H]1CCN2C(=O)[C@H](CC(C)C)NC(=O)c1ccc(N(C)C)cc1` [Example 165, (3aR,6aS)-N-{(1S)-[4-(3-Acetylamino-thiophene-2-carbonyl)-6-oxo-hexahydro-pyrrolo[3,2-b]pyrrole-1-carbonyl]-3-methyl-butyl}-4-dimethylamino-benzamide], the pKi on Wild-type cruzipain and on CPB2.8ΔCTE was more than 5.30 throughout.
In the case of `CC(C)C[C@H](NC(=O)c1ccc(N(C)C)cc1)C(=O)N1CC[C@@H]2[C@H]1C(=O)CN2C(=O)c1ccccc1S(C)(=O)=O` [Example 42, (3aR,6aS)-4-Dimethylamino-N-{(1S)-1-[4-(2-methanesulfonyl-benzoyl)-6-oxo-hexahydro-pyrrolo[3,2-b]pyrrole-1-carbonyl]-3-methyl-butyl}-benzamide], the pKi on Wild-type cruzipain and on CPB2.8ΔCTE was more than 5.30 each time.
In the case of `CCCCC(=O)N1CC(=O)[C@@H]2[C@H]1CCN2C(=O)[C@H](CC(C)C)NC(=O)c1ccc(N(C)C)cc1` [Example 128, (3aR,6aS)-4-Dimethylamino-N-[(1S)-3-methyl-1-(6-oxo-4-pentanoyl-hexahydro-pyrrolo[3,2-b]pyrrole-1-carbonyl)-butyl]-benzamide], the pKi on Wild-type cruzipain and on CPB2.8ΔCTE was more than 5.30 in each case.
Take `CC(C)C[C@H](NC(=O)c1ccc(N(C)C)cc1)C(=O)N1CC[C@@H]2[C@H]1C(=O)CN2C(=O)c1cc2ccccc2s1` [Example 100, (3aR,6aS)-N-{(1S)-1-[4-(Benzo[b]thiophene-2-carbonyl)-6-oxo-hexahydro-pyrrolo[3,2-b]pyrrole-1-carbonyl)-3-methyl-butyl}-4-dimethylamino-benzamide]: the pKi on Wild-type cruzipain and at CPB2.8ΔCTE was more than 5.30 throughout.
On to `CC(C)C[C@H](NC(=O)c1ccc(N(C)C)cc1)C(=O)N1CC[C@@H]2[C@H]1C(=O)CN2C(=O)c1ccc([N+](=O)[O-])cc1` [Example 47, (3aR,6aS)-4-Dimethylamino-N-{(1S)-3-methyl-1-[4-(4-nitro-benzoyl)-6-oxo-hexahydro-pyrrolo[3,2-b]pyrrole-1-carbonyl]-butyl}-benzamide], for which the pKi on Wild-type cruzipain and at CPB2.8ΔCTE was more than 5.30 throughout.
As to `Cc1cc(C(=O)N2CC(=O)[C@@H]3[C@H]2CCN3C(=O)[C@H](CC(C)C)NC(=O)c2ccc(N(C)C)cc2)ccc1F` [Example 115, (3aR,6aS)-4-Dimethylamino-N-{(1S)-1-[4-(4-fluoro-3-methyl-benzoyl)-6-oxo-hexahydro-pyrrolo[3,2-b]pyrrole-1-carbonyl]-3-methyl-butyl}-benzamide], the pKi on Wild-type cruzipain and on CPB2.8ΔCTE was more than 5.30 throughout.
`CC(C)C[C@H](NC(=O)c1ccc(N(C)C)cc1)C(=O)N1CC[C@@H]2[C@H]1C(=O)CN2C(=O)[C@@H](N)[C@@H](C)O` [Example 207, (3aR,6aS)-N-{(1S)-1-[4-((2S,3R)-2-Amino-3-hydroxy-butyryl)-6-oxo-hexahydro-pyrrolo[3,2-b]pyrrole-1-carbonyl]-3-methyl-butyl}-4-dimethylamino-benzamide]: the pKi at Wild-type cruzipain and on CPB2.8ΔCTE was more than 5.30 throughout.
On to `CC(C)C[C@H](NC(=O)c1ccc(N(C)C)cc1)C(=O)N1CC[C@@H]2[C@H]1C(=O)CN2C(=O)CC1CCCCC1` [Example 137, (3aR,6aS)-N-{(1S)-1-[4-(2-Cyclohexyl-acetyl)-6-oxo-hexahydro-pyrrolo[3,2-b]pyrrole-1-carbonyl]-3-methyl-butyl}-4-dimethylamino-benzamide], for which the pKi on Wild-type cruzipain and at CPB2.8ΔCTE was more than 5.30 each time.
Consider `CC[C@H](C)[C@H](N)C(=O)N1CC(=O)[C@@H]2[C@H]1CCN2C(=O)[C@H](CC(C)C)NC(=O)c1ccc(N(C)C)cc1` [Example 209, (3aR,6aS)-N-{(1S)-1-[4-((2S,3S)-2-Amino-3-methyl-pentanoyl)-6-oxo-hexahydro-pyrrolo[3,2-b]pyrrole-1-carbonyl]-3-methyl-butyl}-4-dimethylamino-benzamide], for which the pKi at Wild-type cruzipain and at CPB2.8ΔCTE was more than 5.30 throughout.
`CC(C)C[C@H](NC(=O)c1ccc(C(C)(C)C)cc1)C(=O)N1CC[C@@H]2[C@H]1C(=O)CN2C(=O)C1COc2ccccc2O1` (stereo partly drawn) [Example 29, (3aR,6aS)-4-tert-Butyl-N-{(1S)-1-[4-(2,3-dihydrobenzo[1,4]dioxine-2-carbonyl)-6-oxo-hexahydro-pyrrolo[3,2-b]pyrrole-1-carbonyl]-3-methyl-butyl}-benzamide]: the pKi on Wild-type cruzipain and at CPB2.8ΔCTE was more than 5.30 each time.
`CC(C)C[C@H](NC(=O)c1ccc(N(C)C)cc1)C(=O)N1CC[C@@H]2[C@H]1C(=O)CN2C(=O)c1cccs1` [Example 95, (3aR,6aS)-4-Dimethylamino-N-{(1S)-3-methyl-1-[6-oxo-4-(thiophene-2-carbonyl)-hexahydro-pyrrolo[3,2-b]pyrrole-1-carbonyl]-butyl}-benzamide]: the pKi on Wild-type cruzipain and on CPB2.8ΔCTE was more than 5.30 each time.
Consider `CC(C)C[C@H](NC(=O)c1ccc(C(C)(C)C)cc1)C(=O)N1CC[C@@H]2[C@H]1C(=O)CN2C(=O)[C@@H](N)CC(C)C` [Example 192, (3aR,6aS)-N-{(1S)-1-[4-((2S)-2-Amino-4-methyl-pentanoyl)-6-oxo-hexahydro-pyrrolo[3,2-b]pyrrole-1-carbonyl]-3-methyl-butyl}-4-tert-butyl-benzamide], for which the pKi on Wild-type cruzipain and on CPB2.8ΔCTE was more than 5.30 throughout.
Regarding `CC(C)C[C@H](NC(=O)c1ccc(N(C)C)cc1)C(=O)N1CC[C@@H]2[C@H]1C(=O)CN2C(=O)c1ccco1` [Example 96, (3aR,6aS)-4-Dimethylamino-N-{(1S)-1-[4-(furan-2-carbonyl)-6-oxo-hexahydro-pyrrolo[3,2-b]pyrrole-1-carbonyl]-3-methyl-butyl}-benzamide], the pKi on Wild-type cruzipain and on CPB2.8ΔCTE was more than 5.30 each time.
Turning to `CC(C)C[C@H](NC(=O)c1ccc(N(C)C)cc1)C(=O)N1CC[C@@H]2[C@H]1C(=O)CN2C(=O)c1ccncc1` [Example 82, (3aR,6aS)-4-Dimethylamino-N-{(1S)-3-methyl-1-[6-oxo-4-(pyridinecarbonyl)-hexahydro-pyrrolo[3,2-b]pyrrole-1-carbonyl]-butyl}-benzamide], the pKi at Wild-type cruzipain and on CPB2.8ΔCTE was more than 5.30 each time.
In the case of `CC(C)CCC(=O)N1CC(=O)[C@@H]2[C@H]1CCN2C(=O)[C@H](CC(C)C)NC(=O)c1ccc(N(C)C)cc1` [Example 105, (3aR,6aS)-4-Dimethylamino-N-{(1S)-3-methyl-1-[4-(4-methyl-pentanoyl)-6-oxo-hexahydro-pyrrolo[3,2-b]pyrrole-1-carbonyl]-butyl}-benzamide], the pKi at Wild-type cruzipain and on CPB2.8ΔCTE was more than 5.30 in each case.
As to `CC(=O)N[C@@H](CCC(C)C)C(=O)N1CC(=O)[C@@H]2[C@H]1CCN2C(=O)[C@H](CC(C)C)NC(=O)c1ccc(N(C)C)cc1` [Example 214, (3aR,6aS)-N-{(1S)-1-[4-((2S)-2-Acetylamino-5-methyl-hexanoyl)-6-oxo-hexahydro-pyrrolo[3,2-b]pyrrole-1-carbonyl]-3-methyl-butyl}-4-dimethylamino-benzamide], the pKi at Wild-type cruzipain and at CPB2.8ΔCTE was more than 5.30 each time.
Regarding `CC(=O)N[C@@H](CC(C)C)C(=O)N1CC(=O)[C@@H]2[C@H]1CCN2C(=O)[C@H](Cc1ccc(O)cc1)NC(=O)c1cccc(Br)c1` [Example 345, (3aR,6aS)-N-[(1S)-2-[4-((2S)-2-Acetylamino-4-methyl-pentanoyl)-6-oxo-hexahydro-pyrrolo[3,2-b]pyrrol-1-yl]-1-(4-hydroxy-benzyl)-2-oxo-ethyl]-3-bromo-benzamide], the pKi on Wild-type cruzipain and at CPB2.8ΔCTE was more than 5.30 throughout.
Turning to `CC(C)C[C@H](NC(=O)c1ccc(N(C)C)cc1)C(=O)N1CC[C@@H]2[C@H]1C(=O)CN2C(=O)c1ccc(F)c(F)c1` [Example 116, (3aR,6aS)-N-{(1S)-1-[4-(3,4-Difluoro-benzoyl)-6-oxo-hexahydro-pyrrolo[3,2-b]pyrrole-1-carbonyl]-3-methyl-butyl}-4-dimethylamino-benzamide], the negative-log Ki (pKi) at Wild-type cruzipain and at CPB2.8ΔCTE was more than 5.30 throughout.
